# Biological target: D(2) dopamine receptor (Rattus norvegicus, UniProt P61169)
# Assay: Displacement of spiperone from dopamine receptor D2 of rat brain membrane
# Sequence of D(2) dopamine receptor (P61169 whole entry): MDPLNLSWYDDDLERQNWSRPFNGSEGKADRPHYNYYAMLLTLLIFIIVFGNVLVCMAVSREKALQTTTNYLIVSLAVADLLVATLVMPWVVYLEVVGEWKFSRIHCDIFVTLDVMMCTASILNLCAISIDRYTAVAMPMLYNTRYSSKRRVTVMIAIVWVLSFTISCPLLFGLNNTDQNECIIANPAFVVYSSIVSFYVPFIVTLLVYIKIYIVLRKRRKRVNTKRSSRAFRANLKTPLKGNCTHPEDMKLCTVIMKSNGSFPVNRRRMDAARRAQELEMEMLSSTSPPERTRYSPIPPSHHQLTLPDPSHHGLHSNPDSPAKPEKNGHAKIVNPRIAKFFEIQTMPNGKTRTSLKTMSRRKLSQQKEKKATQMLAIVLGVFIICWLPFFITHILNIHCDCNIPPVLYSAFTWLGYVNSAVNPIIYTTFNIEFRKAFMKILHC
structure (smiles),measurement,value
CCCCN1CCC[C@H](c2cccc(O)c2)C1,IC50,0.43 µM
CN1CCC[C@H](c2cccc(O)c2)C1,IC50,0.61 µM
CN1CCC[C@@H](c2cccc(O)c2)C1,IC50,0.29 µM
CCc1ccc(N2CCC[C@@H](c3cccc(O)c3)C2)cc1,IC50,0.0437 µM
CCc1ccc(N2CCC[C@H](c3cccc(O)c3)C2)cc1,IC50,1.23 µM

# — BindingDB's records for doi:10.1021/jm00037a025 (University of Oxford, 1994)
